Drawing on the RepoRT retention time repository, this text covers LC retention time for 84 compounds.

The nature of this data set: HILIC, Waters ACQUITY UPLC BEH Amide, 100 × 2.1 mm, 1.7 µm; A: water + 0.125% formic acid + 10 mM ammonium formate; B: 5% water + 95% acetonitrile + 0.125% formic acid + 10 mM ammonium formate; gradient (min/%B) 0/100 2/100 7.7/70 9.5/40 10.25/30 12.75/100 17/100. The settings on record: stereoisomer not certain.
Take `CNc1nc2c(ncn2C2OC(CO)C(O)C2O)c(=O)[nH]1` (centres undefined) [N2-Methylguanosine]: the LC retention time amounted to 6.4 min.
Next, `CC(C)=CCNc1ncnc2c1ncn2C1OC(CO)C(O)C1O` (centres undefined) [N6-Isopentenyladenosine]: 1.48 min; `CC(=O)NCCCCNCCCN` [N8-Acetylspermidine]: 8.87 min.
Take `CN(C)C(CCCN=C(N)N)C(=O)O` (centres undefined) [N,N-Dimethylarginine]: the LC retention time was 9.1 min.
With `CN(C)C=O` [N,N-Dimethylformamide], the LC retention time came out at 1.29 min.
Next, `CN(C)CC(=O)O` [N,N-Dimethylglycine]: 7.4 min; `CC(=O)Nc1ccc2c(c1)Cc1ccccc1-2` [N-2-Fluorenylacetamide]: 4.74 min; `OCC1OC(n2cnc3c(NC4CCCC4O)ncnc32)C(O)C1O` (centres undefined) [N-2-Hydroxycyclopentyladenosine]: 3.48 min.
Next, `O=C(O)CNC(=O)c1ccco1` [N-(2-Furoyl)glycine]: 4.01 min.
The value for `CC(=O)NC(CCCN=C(N)N)C(=O)O` [N-.alpha.-Acetyl-L-arginine] was 8.16 min; that for `CC(=O)NCCc1c[nH]c2ccc(O)cc12` [N-Acetyl-5-hydroxytryptamine] was 1.43 min; that for `CC(=O)NC(CC(=O)O)C(=O)NC(CCC(=O)O)C(=O)O` (centres undefined) [N-Acetyl-Asp-Glu] was 8.11 min.
As to `CC(=O)NCCC(=O)NC(Cc1cnc[nH]1)C(=O)O` [N-Acetyl-L-carnosine], the LC retention time is 8.35 min.
Next, `CC(=O)N[C@@H](CCC(N)=O)C(=O)O` [N-Acetyl-L-glutamine]: 8.18 min; `CC(=O)NC(C)C(=O)O` (centres undefined) [N-Acetylalanine]: 4.83 min.
On to `CC(=O)N1CCCCCC1=O` [N-Acetylcaprolactam], for which the LC retention time stood at 2.3 min.
On to `CC(=O)NC(CS)C(=O)O` (centres undefined) [N-Acetylcysteine], for which the LC retention time was 5.28 min.
Take `CC(=O)Nc1ccn(C2OC(CO)C(O)C2O)c(=O)n1` (centres undefined) [N-Acetylcytidine]: the LC retention time is 5.08 min.
Next, `CC(=O)NC(CCC(=O)O)C(=O)O` (centres undefined) [N-Acetylglutamic acid]: 7.67 min.
Next, `CC(=O)NC(Cc1cnc[nH]1)C(=O)O` (centres undefined) [N-Acetylhistidine]: 8.07 min; `CC(=O)NC(CC(C)C)C(=O)O` (centres undefined) [N-Acetylleucine]: 2.29 min; `CC(=O)NC1C(O)OC(CO)C(O)C1O` (centres undefined) [N-Acetylmannosamine]: 7.01 min.
Consider `CSCCC(NC(C)=O)C(=O)O` (centres undefined) [N-Acetylmethionine], for which the LC retention time worked out at 3.23 min.
`CC(=O)NC1C(O)CC(O)(C(=O)O)OC1C(O)C(O)CO` (centres undefined) [N-Acetylneuraminic acid]: the LC retention time turned out to be 9.26 min.
Turning to `CC(=O)NC(Cc1ccccc1)C(=O)O` (centres undefined) [N-Acetylphenylalanine], the LC retention time amounted to 2.61 min.
The value for `CC(=O)NC(CO)C(=O)O` (centres undefined) [N-Acetylserine] was 7.67 min; that for `CC(=O)NC(Cc1c[nH]c2ccccc12)C(=O)O` (centres undefined) [N-Acetyltryptophan] was 2.81 min.
Next, `O=C(O)CNC(=O)OCc1ccccc1` [N-Benzyloxycarbonylglycine]: 7.67 min.
`CC(C)CC(NC(=O)OCc1ccccc1)C(=O)O` (centres undefined) [N-Carbobenzyloxyleucine]: the LC retention time was determined as 1.28 min.
For `O=C(O)CNC(=O)C=Cc1ccccc1` [N-Cinnamoylglycine], the LC retention time was determined as 2.95 min.
Next, `O=CNC1CCCCC1` [N-Cyclohexylformamide]: 1.2 min; `CSCCC(NC=O)C(=O)O` (centres undefined) [N-Formylmethionine]: 3.93 min; `CC(C)C(=O)NCC(=O)O` [N-Isobutyrylglycine]: 3.6 min.
The value for `CC(C)CC(=O)NCC(=O)O` [N-Isovalerylglycine] was 2.94 min; that for `CNC(C)C(=O)O` (centres undefined) [N-Methylalanine] was 7.67 min.
The value for `CNc1ccccc1` [N-Methylaniline] was 1.06 min.
With `CNc1ccccc1C(=O)O` [N-Methylanthranilic acid], the LC retention time was 1.22 min.
For the compound `CNC(CC(=O)O)C(=O)O` (centres undefined) [N-Methylaspartic acid], the LC retention time turned out to be 2.53 min.
Regarding `CCC(C)C(NC)C(=O)O` (centres undefined) [N-Methylisoleucine], the LC retention time amounted to 6.44 min.
`CNC(CC(C)C)C(=O)O` (centres undefined) [N-Methylleucine]: the LC retention time stood at 6.45 min.
As for `CNCCCCC(N)C(=O)O` (centres undefined) [N-Methyllysine], the LC retention time worked out at 9.36 min.
Next, `CN1CCC(c2ccc(F)cc2)C(COc2ccc3c(c2)OCO3)C1` (centres undefined) [N-Methylparoxetine]: 2.2 min; `CNC(Cc1ccccc1)C(=O)O` (centres undefined) [N-Methylphenylalanine]: 6.22 min.
The value for `CN1CCCC1C(=O)O` (centres undefined) [N-Methylproline] was 7.11 min; that for `CNC(C(=O)O)C(C)O` (centres undefined) [N-Methylthreonine] was 7.68 min; that for `CNC(Cc1ccc(O)cc1)C(=O)O` (centres undefined) [N-Methyltyrosine] was 6.79 min.
The value for `CNC(C(=O)O)C(C)C` (centres undefined) [N-Methylvaline] was 6.99 min; that for `CC(=O)NC(CCCN)C(=O)O` [N-alpha-Acetyl-L-ornithine] was 8.31 min.
Turning to `CNCCc1cnc[nH]1` [N-alpha-methylhistamine], the LC retention time was found to be 7.48 min.
Next, `CC(=O)NCCCCC(N)C(=O)O` (centres undefined) [N-epsilon-Acetyllysine]: 8.03 min.
The value for `COc1ccc(NC=O)c(C(=O)CCNC(C)=O)c1` [N-gamma-Acetyl-N-2-formyl-5-methoxykynurenamine] was 1.32 min; that for `CC(=O)NCCc1cnc[nH]1` [N-omega-Acetylhistamine] was 6 min.
As for `CC(=O)N[C@@H](CCCCN)C(=O)O` [N.alpha.-Acetyl-L-lysine], the LC retention time is 8.15 min.
Next, `CN[C@@H](CCCCN)C(=O)O` [N.alpha.-Methyl-L-lysine]: 7.35 min.
The value for `C[N+](C)(C)CCCCC(N)C(=O)[O-]` (centres undefined) [NEPSILON,NEPSILON,NEPSILON-TRIMETHYLLYSINE] was 9.29 min.
Next, `CCCCN1CCCC1CNC(=O)c1cc(C#N)c2ccccc2c1OC` (centres undefined) [Nafadotride]: 2.05 min; `COc1ccccc1N1CCN(CC(O)COc2cccc3ccccc23)CC1` (centres undefined) [Naftopidil]: 1.99 min.
For `Oc1ccc2c3c1OC1C(O)CCC4(O)C(C2)N(CC2CCC2)CCC314` (centres undefined) [Nalbuphine], the LC retention time stood at 5.25 min.
On to `Oc1ccc2c3c1OC1c4[nH]c5ccccc5c4CC4(O)C(C2)N(CC2CC2)CCC314` (centres undefined) [Naltrindole], for which the LC retention time is 4.45 min.
Next, `CC12CCC3C4CCC(=O)C=C4CCC3C1CCC2O` (centres undefined) [Nandrolone]: 1.06 min; `CC1OC(OC2C(Oc3cc(O)c4c(c3)OC(c3ccc(O)cc3)CC4=O)OC(CO)C(O)C2O)C(O)C(O)C1O` (centres undefined) [Naringin]: 5.61 min; `CC(C)C1CCC(C(=O)NC(Cc2ccccc2)C(=O)O)CC1` (centres undefined) [Nateglinide]: 1.3 min.
Turning to `CCc1nn(CCCN2CCN(c3cccc(Cl)c3)CC2)c(=O)n1CCOc1ccccc1` [Nefazodone], the LC retention time was determined as 1.88 min.
Next, `Cc1c(O)cccc1C(=O)NC(CSc1ccccc1)C(O)CN1CC2CCCCC2CC1C(=O)NC(C)(C)C` (centres undefined) [Nelfinavir]: 1.55 min.
Next, `CC(=O)OCC=C(C)CCC=C(C)C` [Nerylacetate]: 0.99 min.
Next, `O=C(CCNNC(=O)c1ccncc1)NCc1ccccc1` [Nialamide]: 1.69 min; `O=C(NCCO[N+](=O)[O-])c1cccnc1` [Nicorandil]: 1.11 min; `NC(=O)c1ccc[n+](C2OC(CO)C(O)C2O)c1` (centres undefined) [Nicotinamide riboside cation]: 7.51 min.
With `NC(=O)c1cccnc1` [Nicotinamide], the LC retention time worked out at 1.7 min.
Next, `CN1CCCC1c1cccnc1` (centres undefined) [Nicotine]: 5.34 min.
Next, `O=C(O)c1cccnc1` [Nicotinic acid]: 4.01 min.
The value for `O=C(O)CNC(=O)c1cccnc1` [Nicotinoylglycine] was 7.08 min.
Turning to `COC(=O)C1=C(C)NC(C)=C(C(=O)OC)C1c1ccccc1[N+](=O)[O-]` [Nifedipine], the LC retention time amounted to 1.02 min.
Next, `Cn1c(NCCN(CCO)CCCc2ccc([N+](=O)[O-])cc2)cc(=O)n(C)c1=O` [Nifekalant]: 3.21 min; `CN1C(=O)CN=C(c2ccccc2)c2cc([N+](=O)[O-])ccc21` [Nimetazepam]: 0.98 min; `COCCOC(=O)C1=C(C)NC(C)=C(C(=O)OC(C)C)C1c1cccc([N+](=O)[O-])c1` (centres undefined) [Nimodipine]: 0.94 min.
In the case of `CC(=O)Oc1ccccc1C(=O)Nc1ncc([N+](=O)[O-])s1` [Nitazoxanide], the LC retention time is 1 min.
As to `O=C1CN=C(c2ccccc2)c2cc([N+](=O)[O-])ccc2N1` [Nitrazepam], the LC retention time is 1.2 min.
The value for `CCOC(=O)C1=C(C)NC(C)=C(C(=O)OC)C1c1cccc([N+](=O)[O-])c1` (centres undefined) [Nitrendipine] was 0.95 min.
The value for `CNC(=C[N+](=O)[O-])NCCSCc1csc(CN(C)C)n1` [Nizatidine] was 4.65 min; that for `COc1ccc(-c2cc(=O)c3c(OC)c(OC)c(OC)c(OC)c3o2)cc1OC` [Nobiletin] was 1 min.
The value for `CCCCC(N)C(=O)O` (centres undefined) [Norleucine] was 6.99 min; that for `c1cncc(C2CCCN2)c1` (centres undefined) [Nornicotine] was 5.98 min; that for `CCCC(N)C(=O)O` (centres undefined) [Norvaline] was 4.89 min.
